Measurements from patent US8680152B2, “Cathepsin inhibitors for the treatment of bone cancer and bone cancer pain” (Virobay, Inc., priority 2011, dated 2014).

Columns and labels:
[1] = system: cathepsin S-dependent invariant chain processing; assay: Cathepsin S-dependent invariant chain processing in Raji B cells; type: cell-based; details: Homo sapiens, read-out: inhibition of cathepsin S-dependent invariant chain processing IC50
[2] = target: T1, cathepsin S (Mus musculus, UniProt O70370); assay: Cathepsin S enzyme across species: mouse; type: biochemical
[3] = target: cathepsin S enzyme (Rattus norvegicus, UniProt Q02765); assay: Cathepsin S enzyme across species: rat; type: biochemical
Sequence of cathepsin S enzyme (Rattus norvegicus, UniProt Q02765) (Q02765 113-330): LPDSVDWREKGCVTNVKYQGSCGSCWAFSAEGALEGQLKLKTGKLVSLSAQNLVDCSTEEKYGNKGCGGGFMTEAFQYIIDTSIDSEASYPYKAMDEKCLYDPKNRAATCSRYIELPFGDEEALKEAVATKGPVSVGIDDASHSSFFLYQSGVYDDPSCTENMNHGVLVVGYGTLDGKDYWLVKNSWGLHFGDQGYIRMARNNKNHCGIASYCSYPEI

[4] = target: cathepsin S enzyme (Canis lupus familiaris, UniProt Q8HY81); assay: Cathepsin S enzyme across species: dog; type: biochemical
Sequence of cathepsin S enzyme (Canis lupus familiaris, UniProt Q8HY81) (Q8HY81 115-331): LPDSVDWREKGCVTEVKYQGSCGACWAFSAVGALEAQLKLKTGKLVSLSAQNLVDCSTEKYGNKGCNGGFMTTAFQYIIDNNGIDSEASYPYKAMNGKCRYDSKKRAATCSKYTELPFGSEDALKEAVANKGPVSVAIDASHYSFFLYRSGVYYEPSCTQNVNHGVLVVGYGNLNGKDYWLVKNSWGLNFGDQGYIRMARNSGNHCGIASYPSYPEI

[5] = system: tumor invasion; assay: In vitro bioassay for tumor invasiveness; type: cell-based
[6] = system: angiogenesis; assay: In vitro bioassay for angiogenesis; type: cell-based
[7] = system: 66.1 cancer cells in the bone; assay: Bone cancer pain study (breast cancer cells implanted in femur); type: in vivo, mice
Description: FIG. 3: Bone cancer and bone cancer pain study with Compound A. FIG. 3a: Protocol. Bone cancer pain study with Compound A. Dose groups: Vehicle, Zoledronate (100 μg/kg ) positive control, Compound A (100 mg/kg, daily dosing, SC, days 7-21), 10 animals per group Control animals were injected with media (and no tumor cells) in the femur. FIGS. 3b-3d. Left to right: Sham/media +Compound A, Cancer +vehicle, cancer +zoledronate, cancer +Compound A. FIG. 3b: Effects on bone destruction. […] Spontaneous Pain in the form of Flinching was attenuated by Compound Aon day 14 and day 21 with statistical significance, as compared to vehicle. […] Movement evoked pain was attenuated by Compound A on day 13 with statistical significance as compared to vehicle.
FIG. 6. Histology Analysis of Bone Samples in Bone Caner Pain Study. Representative bone sections from the study described in FIG. 3A were subjected to staining with the standard hematoxylin and eosin histological stain to visualize cellular structures in the bone. In FIG. 6, the pitting of the bone is shown and indicated from samples in the study arm with 66.1 cancer cells in the bone and dosed with vehicle control only, which is due to ostelytic activity induced by the presence of the 66.1 cancer cells in the bone.
FIG. 3a sets forth the treatment protocol for the bone cancer pain study with Compound A. Dose groups: Vehicle, Zoledronate (100 μg/kg) positive control, Compound A (100 mg/kg, daily dosing, SC, days 7-21), 10 animals per group. Mice were implanted with breast cancer cells in the femur on day 0 and treated with Compound A on days 7 through 21. On days 0, 7, 14, and 21 radiographic imaging, thermal hyperalgesia, tactile allodynia, movement-evoked and spontaneous pain measurements were taken. Pain measurements were made 6 hours after dosing. Control animals were injected with media (and no tumor cells) in the femur. […] Bone destruction was attenuated by Compound A on day 14 and day 21 as compared to vehicle. The efficacy was similar to that obtained with zoledronate (see, FIG. 3b). […] Spontaneous Pain in the form of Flinching was attenuated by Compound A on day 14 and day 21 with statistical significance, as compared to vehicle (see, FIG. 3d). […] Movement evoked pain was attenuated by Compound A on day 13 with statistical significance as compared to vehicle (see, FIG. 3e).
Compound A was dosed subcutaneously, at a 100 mg/kg dose once a day, in a nanoparticle-sized formulation suitable for subcutaneous dosing and diluted in D5W (sterile 5% dextrose in water). Dosing was initiated 7 days after the femur implantation of the 66.1 tumor cells and continued once a day.
The data in FIG. 6 is based on representative bone sections from the study described in FIG. 3A, which were subjected to staining with the standard histological stain hematoxylin and eosin, in order to visualize cellular structures in the bone. Visualized samples include bone sections from study animals with 66.1 tumor cells injected into bone and dosed with either vehicle control or compound A and also animals with media alone injected into bone and also dosed with compound A. Normal hemapoetic cells of the bone and the 66.1 cancer cells within the bone, as well as bone histomorphology, were visualized by this staining procedure. […] This is due to ostelytic activity induced by the presence of the 66.1 cancer cells in the bone.

[8] = Pharmacokinetic profile in mice; type: in vivo
Description: (§1) FIG. 4. Pharmacokinetics of Compound A. FIG. 4a: Compound A pharmacokinetic profile in mice and rats. FIG. 4b. Single dose pharmacokinetics in the mouse following intravenous (1 mg/kg) and oral doses (5 mg/kg). Plasma concentration values vs. time.

[9] = Pharmacokinetic profile in rats; type: in vivo
Description: as §1

[10] = system: multiple human cathepsin enzymes; assay: Cathepsin inhibitory profile on multiple cathepsin enzymes; type: biochemical
From the text: FIG. 1. […] Methods are similar to those set forth in the Biological Examples.

[11] = target: cathepsin B (Homo sapiens, UniProt P07858); assay: Activity-based probe (125-I labeled DMK) assay in HUVEC, cathepsin B; type: cell-based; set-up: endogenous in cells; host or cells: HUVEC
Description: (§2) FIG. 2. […] An activity-based probe assaying using 125-I labeled DMK reagent to assess the ability of Compound A to inhibit cathepsin L and cathepsin B protease activity in cells. In this assay human umbilical […] endothelial cells (HUVEC) are dosed with the indicated concentrations of Compound A in vitro. They are then incubated with the 125-I labeled activity probe for a short time, a cellular lysate produced, and the proteins analyzed biochemically by SDS PAGE. The gels are then imaged by autoradiography and the inhibition of protease activity, as assessed by the inhibition of activity probe binding, can be detected. FIG. 2b: Compound A inhibition of cathepsin S activity in the spleen in vivo as a function of time after dosing and plasma levels following a 10 mg/kg dose of the agent. […] The accumulation of the lip10 biomarker was tracked in spleen tissue samples taken from the treated animal. Accordingly, FIG. 2b. is based upon an assay which detects the accumulation of a proteolytic substrate of cathepsin S, the p10 fragment of invariant chain shown here as lip10, following dosing of Compound A in mice at 10 mg/kg/3 mice per time points are dosed with Compound A for the indicated times, and the spleens harvested and frozen. The level of lip10, an indicator cathepsin S inhibition is then detected using SDS PAGE and western blotting in lysates produced from the spleens. […]

[12] = target: cathepsin L (Homo sapiens, UniProt P07711); assay: Activity-based probe (125-I labeled DMK) assay in HUVEC, cathepsin L; type: cell-based; set-up: endogenous in cells; host or cells: HUVEC
Sequence of cathepsin L (P07711 114-333): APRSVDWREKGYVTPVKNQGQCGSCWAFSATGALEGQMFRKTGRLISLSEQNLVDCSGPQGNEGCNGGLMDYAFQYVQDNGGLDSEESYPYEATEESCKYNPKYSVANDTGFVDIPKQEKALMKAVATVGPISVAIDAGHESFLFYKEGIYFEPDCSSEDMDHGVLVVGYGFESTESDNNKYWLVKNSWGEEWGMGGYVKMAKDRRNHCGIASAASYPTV
Description: as §2

[13] = target: T1, cathepsin S; assay: Accumulation of lip10 biomarker in spleen after dosing; type: in vivo; set-up: from tissue; host or cells: mouse spleen (in vivo dosing); details: mice, 10 mg/kg
Description: as §2

[14] = day 14 and day 21, 100 mg/kg, daily, SC, compared to vehicle

CC[C@H](NC(=O)[C@H](CS(=O)(=O)CC1CC1)N[C@@H](c1ccc(F)cc1)C(F)(F)F)C(=O)C(=O)NC1CC1 [Compound A, (S)—N-cyclopropyl-3-((R)-3-((cyclopropylmethyl)sulfonyl)-2-(((S)-2,2,2-trifluoro-1-(4-fluorophenyl)ethyl)amino)propanamido)-2-oxopentanamide]
IC50 [1]: < 10 nM
IC50 [2]: < 0.25 nM
IC50 [3]: 0.77 nM
IC50 [4]: 0.25 nM
tumor invasion [5]: inhibited
angiogenesis [6]: inhibited
bone pitting (histology, hematoxylin and eosin) ([7]; 100 mg/kg SC once a day, nanoparticle-sized formulation in D5W): reduced
effect after drug washout ([7]; after 7 days of drug washout): without any significant effect
movement evoked pain ([7]; day 13, 100 mg/kg, daily, SC, compared to vehicle): attenuated
bone destruction [7, 14]: attenuated
spontaneous pain in the form of Flinching [7, 14]: attenuated
spontaneous pain in the form of Guarding ([7]; day 14 and day 21, 100 mg/kg, daily, SC, compared to vehicle or zoledronate): attenuated
body weight ([7]; day 21, 100 mg/kg, daily, SC, days 7-21, compared to vehicle): retained weight as compared to vehicle
pharmacokinetics [8]: very favorable pharmacokinetics
pharmacokinetics [9]: very favorable pharmacokinetics
cathepsin inhibitory profile on multiple cathepsin enzymes [10]: very high potency and selectivity
inhibition of cathepsin B activity in endothelial cells, potency [11]: single digit nanomolar potency
inhibition of cathepsin L activity in endothelial cells, potency [12]: single digit nanomolar potency
activity in vivo as judged by accumulation of a biomarker (lip10) in the spleen [13]: active in vivo
